# Experimental data taken from ChEMBL document CHEMBL4431341, “Synthesis and anticancer activity of a hydroxytolan series” (Bioorg Med Chem Lett, 2016).
# Calls of active or inactive are those of the source. No cut-off for these calls is given here.
# Experiments:
# [1] = test system: DU-145; experiment: Cytotoxicity against human DU145 cells after 24 hrs by MTT assay; format: functional; settings: DU-145, 24 h, read-out: CD50 (the source's name)
# [2] = test system: T-24; experiment: Cytotoxicity against human T24 cells after 24 hrs by MTT assay; format: functional; settings: T-24, 24 h, read-out: CD50 (the source's name)
# [3] = test system: MDAH 2774; experiment: Cytotoxicity against human MDAH 2774 cells after 24 hrs by MTT assay; format: functional; settings: MDAH 2774, 24 h, read-out: CD50 (the source's name)
# [4] = Cytotoxicity against human MHRF cells after 24 hrs by MTT assay; format: cell-based; settings: read-out: CD50
# [5] = test system: DU-145; experiment: Cytotoxicity against human DU145 cells after 48 hrs by MTT assay; format: functional; settings: DU-145, 48 h, read-out: CD50 (the source's name)
# [6] = test system: T-24; experiment: Cytotoxicity against human T24 cells after 48 hrs by MTT assay; format: functional; settings: T-24, 48 h, read-out: CD50 (the source's name)
# [7] = test system: MDAH 2774; experiment: Cytotoxicity against human MDAH 2774 cells after 48 hrs by MTT assay; format: functional; settings: MDAH 2774, 48 h, read-out: CD50 (the source's name)
# [8] = Cytotoxicity against human MHRF cells after 48 hrs by MTT assay; format: cell-based; settings: read-out: CD50
# [9] = test system: DU-145; experiment: Cytotoxicity against human DU145 cells after 72 hrs by MTT assay; format: functional; settings: DU-145, 72 h, read-out: CD50 (the source's name)
# [10] = test system: T-24; experiment: Cytotoxicity against human T24 cells after 72 hrs by MTT assay; format: functional; settings: T-24, 72 h, read-out: CD50 (the source's name)
# [11] = test system: MDAH 2774; experiment: Cytotoxicity against human MDAH 2774 cells after 72 hrs by MTT assay; format: functional; settings: MDAH 2774, 72 h, read-out: CD50 (the source's name)
# [12] = Cytotoxicity against human MHRF cells after 72 hrs by MTT assay; format: cell-based; settings: read-out: CD50
# [13] = test system: DU-145; experiment: Potency index, ratio of CD50 for RES to CD50 for test compound against human DU145 cells after 24 hrs; format: functional
# [14] = test system: T-24; experiment: Potency index, ratio of CD50 for RES to CD50 for test compound against human T24 cells after 24 hrs; format: functional
# [15] = test system: MDAH 2774; experiment: Potency index, ratio of CD50 for RES to CD50 for test compound against human MDAH 2774 cells after 24 hrs; format: functional
# [16] = Ratio of CD50 for test compound to CD50 for RES against human MHRF cells after 24 hrs; format: ADME, cell-based
# [17] = test system: DU-145; experiment: Potency index, ratio of CD50 for RES to CD50 for test compound against human DU145 cells after 48 hrs; format: functional
# [18] = test system: T-24; experiment: Potency index, ratio of CD50 for RES to CD50 for test compound against human T24 cells after 48 hrs; format: functional
# [19] = test system: MDAH 2774; experiment: Potency index, ratio of CD50 for RES to CD50 for test compound against human MDAH 2774 cells after 48 hrs; format: functional
# [20] = Ratio of CD50 for test compound to CD50 for RES against human MHRF cells after 48 hrs; format: ADME, cell-based
# [21] = test system: DU-145; experiment: Potency index, ratio of CD50 for RES to CD50 for test compound against human DU145 cells after 72 hrs; format: functional
# [22] = test system: T-24; experiment: Potency index, ratio of CD50 for RES to CD50 for test compound against human T24 cells after 72 hrs; format: functional
# [23] = test system: MDAH 2774; experiment: Potency index, ratio of CD50 for RES to CD50 for test compound against human MDAH 2774 cells after 72 hrs; format: functional
# [24] = Ratio of CD50 for test compound to CD50 for RES against human MHRF cells after 72 hrs; format: ADME, cell-based
# [25] = Selectivity index, ratio of CD50 against human MHRF cells to CD50 for human DU145 cells after 24 hrs
# [26] = Selectivity index, ratio of CD50 against human MHRF cells to CD50 for human T24 cells after 24 hrs
# [27] = Selectivity index, ratio of CD50 against human MHRF cells to CD50 for human MDAH 2774 cells after 24 hrs
# [28] = Selectivity index, ratio of CD50 against human MHRF cells to CD50 for human DU145 cells after 48 hrs
# [29] = Selectivity index, ratio of CD50 against human MHRF cells to CD50 for human T24 cells after 48 hrs
# [30] = Selectivity index, ratio of CD50 against human MHRF cells to CD50 for human MDAH 2774 cells after 48 hrs
# [31] = Selectivity index, ratio of CD50 against human MHRF cells to CD50 for human DU145 cells after 72 hrs
# [32] = Selectivity index, ratio of CD50 against human MHRF cells to CD50 for human T24 cells after 72 hrs
# [33] = Selectivity index, ratio of CD50 against human MHRF cells to CD50 for human MDAH 2774 cells after 72 hrs
# [34] = Lipophilicity, log P of the compound; format: physicochemical; settings: octanol/water
# [35] = test system: DU-145; experiment: Pro-oxidative activity in human DU145 cells assessed as increase in H2O2 mediated DCF formation at 25 to 100 uM preincubated with DCFH-DA for 30 mins followed by compound treatment for 3 hrs by fluorescence analysis; format: functional, cell-based
# [36] = test system: DU-145; experiment: Cytotoxicity against human DU145 cells assessed as inhibition of cell viability at 2 to 500 uM after 24 hrs by MTT assay; format: functional, cell-based
# [37] = test system: DU-145; experiment: Cytotoxicity against human DU145 cells assessed as inhibition of cell viability at 2 to 500 uM after 24 hrs in presence of CAT by MTT assay; format: functional, cell-based
smiles,measurement,setting,value
Oc1ccc(C#Cc2cc(O)cc(O)c2)cc1,CC50,[1],55.7 µM
same,CC50,[2],92.2 µM
same,CC50,[3],54.1 µM
same,CC50 at 24 h,[4],295 µM
same,CC50,[5],37.4 µM
same,CC50,[6],41.1 µM
same,CC50,[7],26.4 µM
same,CC50 at 48 h,[8],198 µM
same,CC50,[9],20.3 µM
same,CC50,[10],24.3 µM
same,CC50,[11],20.4 µM
same,CC50 at 72 h,[12],175 µM
same,Ratio,[13],1.7
same,Ratio,[14],2.3
same,Ratio,[15],0.7
same,selectivity ratio at 24 h,[16],0.5
same,Ratio,[17],1.6
same,Ratio,[18],1.5
same,Ratio,[19],0.9
same,selectivity ratio at 48 h,[20],0.3
same,Ratio,[21],1.4
same,Ratio,[22],1
same,Ratio,[23],0.7
same,Ratio,[24],0.2
same,Selectivity Index,[25],5.3
same,Selectivity Index,[26],3.2
same,Selectivity Index,[27],5.5
same,Selectivity Index,[28],5.3
same,Selectivity Index,[29],4.8
same,Selectivity Index,[30],7.5
same,Selectivity Index,[31],8.6
same,Selectivity Index,[32],7.2
same,Selectivity Index,[33],8.6
same,logP,[34],1.85
Oc1ccc(/C=C/c2cc(O)cc(O)c2)cc1 [RESVERATROL],CC50,[1],92.2 µM
same,CC50,[2],210 µM
same,CC50,[3],36.9 µM
same,CC50 at 24 h,[4],155 µM
same,CC50,[5],58.2 µM
same,CC50,[6],61.8 µM
same,CC50,[7],23 µM
same,CC50 at 48 h,[8],50.9 µM
same,CC50,[9],27.9 µM
same,CC50,[10],22.7 µM
same,CC50,[11],14.6 µM
same,CC50 at 72 h,[12],32 µM
same,Activity,[35],inactive
same,inhibition,[36],inactive
same,inhibition,[37],inactive
same,logP,[34],1.85
Oc1ccc(C#Cc2ccc(O)cc2)cc1,CC50,[1],46.7 µM
same,CC50,[2],82.6 µM
same,CC50,[3],21.5 µM
same,CC50 at 24 h,[4],299 µM
same,CC50,[5],12.6 µM
same,CC50,[6],31.1 µM
same,CC50,[7],10.5 µM
same,CC50 at 48 h,[8],194 µM
same,CC50,[9],5.6 µM
same,CC50,[10],8.5 µM
same,CC50,[11],3.1 µM
same,CC50 at 72 h,[12],153 µM
same,Ratio,[13],2
same,Ratio,[14],2.5
same,Ratio,[15],1.7
same,selectivity ratio at 24 h,[16],0.5
same,Ratio,[17],4.6
same,Ratio,[18],2
same,Ratio,[19],2.2
same,selectivity ratio at 48 h,[20],0.3
same,Ratio,[21],5
same,Ratio,[22],2.7
same,Ratio,[23],4.7
same,Ratio,[24],0.2
same,Selectivity Index,[25],6.4
same,Selectivity Index,[26],3.6
same,Selectivity Index,[27],13.9
same,Selectivity Index,[28],15.4
same,Selectivity Index,[29],6.2
same,Selectivity Index,[30],18.5
same,Selectivity Index,[31],27.3
same,Selectivity Index,[32],18
same,Selectivity Index,[33],49.3
same,Activity,[35],Active
same,inhibition,[36],Active
same,inhibition,[37],inactive
same,logP,[34],2.3
Oc1cc(O)cc(C#Cc2cc(O)cc(O)c2)c1,CC50,[1],57 µM
same,CC50,[2],44.7 µM
same,CC50,[3],31.4 µM
same,CC50 at 24 h,[4],156 µM
same,CC50,[5],31.6 µM
same,CC50,[6],27.3 µM
same,CC50,[7],21.5 µM
same,CC50 at 48 h,[8],113 µM
same,CC50,[9],17 µM
same,CC50,[10],20.1 µM
same,CC50,[11],16.8 µM
same,CC50 at 72 h,[12],66.9 µM
same,Ratio,[13],1.6
same,Ratio,[14],4.7
same,Ratio,[15],1.7
same,selectivity ratio at 24 h,[16],1
same,Ratio,[17],1.8
same,Ratio,[18],2.3
same,Ratio,[19],0.7
same,selectivity ratio at 48 h,[20],0.5
same,Ratio,[21],5
same,Ratio,[22],1.1
same,Ratio,[23],0.9
same,Ratio,[24],0.5
same,Selectivity Index,[25],2.7
same,Selectivity Index,[26],3.5
same,Selectivity Index,[27],5
same,Selectivity Index,[28],3.6
same,Selectivity Index,[29],4.1
same,Selectivity Index,[30],5.2
same,Selectivity Index,[31],4
same,Selectivity Index,[32],3.3
same,Selectivity Index,[33],4
